Experimental data as given in ChEMBL document CHEMBL5724914, “Linking interpersonal differences in gut microbiota composition and drug biotransformation activity” (2024).

Key:
Conditions in all cases: 2 µM
[1] = (§1) The drug is tested on Z-013 corresponding to rabbit gut metagenome with ENA study accession number: PRJEB37062 and ENA sample accession number: ERS12561813 for biotransformation under anaerobic condition. The drug concentrations were measured over 9 timepoints collected between 0 and 24 hours of incubation by liquid-chromatography-coupled mass spectrometry (LC–MS)
[2] = as §1, with “Z-022” for “Z-013”, “mouse” for “rabbit”, “ERS12561821” for “ERS12561813”
[3] = as §1, with “Z-027” for “Z-013”, “to” for “to rabbit gut”, “ERS12561826” for “ERS12561813”
[4] = as §1, with “Z-007” for “Z-013”, “rat” for “rabbit”, “ERS12561807” for “ERS12561813”
[5] = as §1, with “Z-028” for “Z-013”, “mouse” for “rabbit”, “ERS12561827” for “ERS12561813”
[6] = as §1, with “Z-019” for “Z-013”, “rat” for “rabbit”, “ERS12561818” for “ERS12561813”
[7] = as §1, with “Z-018” for “Z-013”, “pig” for “rabbit”, “ERS12561817” for “ERS12561813”
[8] = as §1, with “Z-001” for “Z-013”, “mouse” for “rabbit”, “ERS12561801” for “ERS12561813”
[9] = as §1, with “Z-016” for “Z-013”, “mouse” for “rabbit”, “ERS12561815” for “ERS12561813”
[10] = as §1, with “Z-023” for “Z-013”, “to” for “to rabbit gut”, “ERS12561822” for “ERS12561813”
[11] = as §1, with “Z-009” for “Z-013”, “pig” for “rabbit”, “ERS12561809” for “ERS12561813”
[12] = as §1, with “Z-026” for “Z-013”, “to” for “to rabbit gut”, “ERS12561825” for “ERS12561813”
[13] = as §1, with “Z-030” for “Z-013”, “mouse” for “rabbit”, “ERS12561829” for “ERS12561813”
[14] = as §1, with “Z-004” for “Z-013”, “to” for “to rabbit gut”, “ERS12561804” for “ERS12561813”
[15] = as §1, with “Z-014” for “Z-013”, “rat” for “rabbit”, “ERS12561814” for “ERS12561813”
[16] = as §1, with “Z-020” for “Z-013”, “ERS12561819” for “ERS12561813”
[17] = as §1, with “Z-002” for “Z-013”, “ERS12561802” for “ERS12561813”
[18] = as §1, with “Z-025” for “Z-013”, “ERS12561824” for “ERS12561813”
[19] = as §1, with “Z-010” for “Z-013”, “to” for “to rabbit gut”, “ERS12561810” for “ERS12561813”
[20] = as §1, with “Z-011” for “Z-013”, “mouse” for “rabbit”, “ERS12561811” for “ERS12561813”
[21] = as §1, with “Z-017” for “Z-013”, “mouse” for “rabbit”, “ERS12561816” for “ERS12561813”
[22] = as §1, with “Z-021” for “Z-013”, “to” for “to rabbit gut”, “ERS12561820” for “ERS12561813”
[23] = as §1, with “Z-024” for “Z-013”, “pig” for “rabbit”, “ERS12561823” for “ERS12561813”
[24] = as §1, with “Z-029” for “Z-013”, “rat” for “rabbit”, “ERS12561828” for “ERS12561813”
[25] = as §1, with “Z-012” for “Z-013”, “to” for “to rabbit gut”, “ERS12561812” for “ERS12561813”
[26] = as §1, with “Z-008” for “Z-013”, “to” for “to rabbit gut”, “ERS12561808” for “ERS12561813”
[27] = as §1, with “Z-003” for “Z-013”, “pig” for “rabbit”, “ERS12561803” for “ERS12561813”
[28] = as §1, with “Z-006” for “Z-013”, “mouse” for “rabbit”, “ERS12561806” for “ERS12561813”
[29] = as §1, with “Z-005” for “Z-013”, “to” for “to rabbit gut”, “ERS12561805” for “ERS12561813”
Further: call rule not given here.

Structure (SMILES) | Bacterial Biotransformation [1] | Bacterial Biotransformation [2] | Bacterial Biotransformation [3] | Bacterial Biotransformation [4] | Bacterial Biotransformation [5] | Bacterial Biotransformation [8] | Bacterial Biotransformation [10] | Bacterial Biotransformation [11] | Bacterial Biotransformation [12] | Bacterial Biotransformation [14] | Bacterial Biotransformation [17] | Bacterial Biotransformation [19] | Bacterial Biotransformation [20] | Bacterial Biotransformation [22] | Bacterial Biotransformation [23] | Bacterial Biotransformation [25] | Bacterial Biotransformation [26] | Bacterial Biotransformation [27] | Bacterial Biotransformation [28] | Bacterial Biotransformation [29] | further results
O=C1CCc2ccc(OCCCCN3CCN(c4cccc(Cl)c4Cl)CC3)cc2N1 [ARIPIPRAZOLE] | Compound metabolized | Compound metabolized | Compound NOT metabolized | Compound NOT metabolized | Compound metabolized | Compound NOT metabolized | Compound metabolized | Compound metabolized | Compound metabolized | Compound NOT metabolized | Compound NOT metabolized | Compound metabolized | Compound NOT metabolized | Compound metabolized | Compound metabolized | Compound NOT metabolized | Compound metabolized | Compound metabolized | Compound metabolized | Compound metabolized | Bacterial Biotransformation [6]: Compound NOT metabolized; Bacterial Biotransformation [7]: Compound metabolized; Bacterial Biotransformation [9]: Compound metabolized; Bacterial Biotransformation [13]: Compound NOT metabolized; Bacterial Biotransformation [15]: Compound metabolized; Bacterial Biotransformation [16]: Compound metabolized; Bacterial Biotransformation [18]: Compound metabolized; Bacterial Biotransformation [21]: Compound metabolized; Bacterial Biotransformation [24]: Compound NOT metabolized
C[C@H]1C[C@H]2[C@@H]3CCC4=CC(=O)C=C[C@]4(C)[C@@]3(F)[C@@H](O)C[C@]2(C)[C@@]1(O)C(=O)CO [BETAMETHASONE] | – | Compound metabolized | Compound NOT metabolized | Compound NOT metabolized | Compound NOT metabolized | Compound NOT metabolized | Compound metabolized | Compound metabolized | Compound metabolized | Compound metabolized | Compound metabolized | Compound metabolized | Compound NOT metabolized | Compound metabolized | Compound metabolized | Compound metabolized | Compound NOT metabolized | Compound metabolized | Compound NOT metabolized | Compound NOT metabolized | –
Cc1ccc(NC(=O)c2ccc(CN3CCN(C)CC3)cc2)cc1Nc1nccc(-c2cccnc2)n1 [IMATINIB] | Compound NOT metabolized | Compound NOT metabolized | Compound NOT metabolized | Compound NOT metabolized | Compound NOT metabolized | Compound NOT metabolized | – | Compound NOT metabolized | Compound NOT metabolized | Compound NOT metabolized | Compound NOT metabolized | Compound NOT metabolized | Compound NOT metabolized | – | Compound NOT metabolized | Compound NOT metabolized | Compound NOT metabolized | Compound NOT metabolized | Compound NOT metabolized | Compound NOT metabolized | Bacterial Biotransformation [7]: Compound NOT metabolized; Bacterial Biotransformation [9]: Compound NOT metabolized; Bacterial Biotransformation [13]: Compound NOT metabolized; Bacterial Biotransformation [15]: Compound NOT metabolized; Bacterial Biotransformation [16]: Compound NOT metabolized; Bacterial Biotransformation [18]: Compound NOT metabolized; Bacterial Biotransformation [21]: Compound NOT metabolized; Bacterial Biotransformation [24]: Compound NOT metabolized
CN1CCCCC1CCN1c2ccccc2Sc2ccc([S+](C)[O-])cc21.O=S(=O)(O)c1ccccc1 (stereo unspecified) [MESORIDAZINE BESYLATE] | Compound NOT metabolized | Compound NOT metabolized | Compound NOT metabolized | Compound NOT metabolized | Compound NOT metabolized | Compound NOT metabolized | Compound NOT metabolized | Compound metabolized | Compound NOT metabolized | Compound metabolized | Compound metabolized | Compound metabolized | Compound NOT metabolized | Compound NOT metabolized | Compound NOT metabolized | Compound metabolized | Compound NOT metabolized | Compound metabolized | Compound NOT metabolized | Compound metabolized | Bacterial Biotransformation [9]: Compound metabolized; Bacterial Biotransformation [13]: Compound NOT metabolized; Bacterial Biotransformation [18]: Compound metabolized; Bacterial Biotransformation [24]: Compound NOT metabolized
CN1CCN(CCCN2c3ccccc3Sc3ccc(Cl)cc32)CC1.O=S(=O)(O)CCS(=O)(=O)O [PROCHLORPERAZINE EDISYLATE] | – | – | – | – | – | – | Compound metabolized | Compound metabolized | Compound metabolized | – | Compound NOT metabolized | – | – | Compound NOT metabolized | – | Compound metabolized | Compound NOT metabolized | – | Compound NOT metabolized | – | –
